“And” between values parts separate entries of the source, which are not always exact repeats. Equal entries are not always repeated. ± gives the expanded uncertainty stated by the source.
Experiment: refractive index (other wavelength) (dimensionless); xn = mol fraction of the nth substance listed

CCCCCCCC[n+]1ccn(C)c1.F[B-](F)(F)F [1-methyl-3-octylimidazolium tetrafluoroborate] + CCCCCCCO
Minimum deviation
Conditions	refractive index
298.87 K, Liquid mixture 1, Wavelength=623.8 nm, x1 = 0.01	1.4213 ± 0.0003
298.87 K, Liquid mixture 2, Wavelength=623.8 nm, x1 = 0.382	1.4264 ± 0.0003
299.67 K, Liquid mixture 1, Wavelength=623.8 nm, x1 = 0.011	1.421 ± 0.0003
299.67 K, Liquid mixture 2, Wavelength=623.8 nm, x1 = 0.371	1.426 ± 0.0003
300.45 K, Liquid mixture 1, Wavelength=623.8 nm, x1 = 0.011	1.4207 ± 0.0003
300.45 K, Liquid mixture 2, Wavelength=623.8 nm, x1 = 0.359	1.4256 ± 0.0003
301.2 K, Liquid mixture 1, Wavelength=623.8 nm, x1 = 0.016	1.4205 ± 0.0003
301.2 K, Liquid mixture 2, Wavelength=623.8 nm, x1 = 0.347	1.4252 ± 0.0003
301.93 K, Liquid mixture 1, Wavelength=623.8 nm, x1 = 0.015	1.4202 ± 0.0003
301.93 K, Liquid mixture 2, Wavelength=623.8 nm, x1 = 0.335	1.4248 ± 0.0003
302.63 K, Liquid mixture 1, Wavelength=623.8 nm, x1 = 0.019	1.42 ± 0.0003
302.63 K, Liquid mixture 2, Wavelength=623.8 nm, x1 = 0.33	1.4245 ± 0.0003
303.31 K, Liquid mixture 1, Wavelength=623.8 nm, x1 = 0.023	1.4198 ± 0.0003
303.31 K, Liquid mixture 2, Wavelength=623.8 nm, x1 = 0.317	1.4241 ± 0.0003
303.94 K, Liquid mixture 1, Wavelength=623.8 nm, x1 = 0.025	1.4196 ± 0.0003
303.94 K, Liquid mixture 2, Wavelength=623.8 nm, x1 = 0.302	1.4237 ± 0.0003
304.5 K, Liquid mixture 1, Wavelength=623.8 nm, x1 = 0.027	1.4194 ± 0.0003
304.5 K, Liquid mixture 2, Wavelength=623.8 nm, x1 = 0.294	1.4234 ± 0.0003
305 K, Liquid mixture 1, Wavelength=623.8 nm, x1 = 0.031	1.4193 ± 0.0003
305 K, Liquid mixture 2, Wavelength=623.8 nm, x1 = 0.284	1.4231 ± 0.0003
305.41 K, Liquid mixture 1, Wavelength=623.8 nm, x1 = 0.035	1.4192 ± 0.0003
305.41 K, Liquid mixture 2, Wavelength=623.8 nm, x1 = 0.272	1.4228 ± 0.0003
305.78 K, Liquid mixture 1, Wavelength=623.8 nm, x1 = 0.037	1.4191 ± 0.0003
305.78 K, Liquid mixture 2, Wavelength=623.8 nm, x1 = 0.259	1.4225 ± 0.0003
306.09 K, Liquid mixture 1, Wavelength=623.8 nm, x1 = 0.038	1.419 ± 0.0003
306.09 K, Liquid mixture 2, Wavelength=623.8 nm, x1 = 0.253	1.4223 ± 0.0003
306.34 K, Liquid mixture 1, Wavelength=623.8 nm, x1 = 0.043	1.419 ± 0.0003
306.34 K, Liquid mixture 2, Wavelength=623.8 nm, x1 = 0.244	1.4221 ± 0.0003
306.54 K, Liquid mixture 1, Wavelength=623.8 nm, x1 = 0.048	1.419 ± 0.0003
306.54 K, Liquid mixture 2, Wavelength=623.8 nm, x1 = 0.242	1.422 ± 0.0003
306.7 K, Liquid mixture 1, Wavelength=623.8 nm, x1 = 0.051	1.419 ± 0.0003
306.7 K, Liquid mixture 2, Wavelength=623.8 nm, x1 = 0.232	1.4218 ± 0.0003
306.83 K, Liquid mixture 1, Wavelength=623.8 nm, x1 = 0.06	1.4191 ± 0.0003
306.83 K, Liquid mixture 2, Wavelength=623.8 nm, x1 = 0.228	1.4217 ± 0.0003
306.93 K, Liquid mixture 1, Wavelength=623.8 nm, x1 = 0.062	1.4191 ± 0.0003
306.93 K, Liquid mixture 2, Wavelength=623.8 nm, x1 = 0.224	1.4216 ± 0.0003
307.02 K, Liquid mixture 1, Wavelength=623.8 nm, x1 = 0.064	1.4191 ± 0.0003
307.02 K, Liquid mixture 2, Wavelength=623.8 nm, x1 = 0.219	1.4215 ± 0.0003
307.1 K, Liquid mixture 1, Wavelength=623.8 nm, x1 = 0.071	1.4192 ± 0.0003
307.1 K, Liquid mixture 2, Wavelength=623.8 nm, x1 = 0.221	1.4215 ± 0.0003
307.16 K, Liquid mixture 1, Wavelength=623.8 nm, x1 = 0.073	1.4192 ± 0.0003
307.16 K, Liquid mixture 2, Wavelength=623.8 nm, x1 = 0.215	1.4214 ± 0.0003
307.21 K, Liquid mixture 1, Wavelength=623.8 nm, x1 = 0.08	1.4193 ± 0.0003
307.21 K, Liquid mixture 2, Wavelength=623.8 nm, x1 = 0.217	1.4214 ± 0.0003
307.26 K, Liquid mixture 1, Wavelength=623.8 nm, x1 = 0.081	1.4193 ± 0.0003
307.26 K, Liquid mixture 2, Wavelength=623.8 nm, x1 = 0.211	1.4213 ± 0.0003
307.3 K, Liquid mixture 1, Wavelength=623.8 nm, x1 = 0.081	1.4193 ± 0.0003
307.3 K, Liquid mixture 2, Wavelength=623.8 nm, x1 = 0.204	1.4212 ± 0.0003
307.33 K, Liquid mixture 1, Wavelength=623.8 nm, x1 = 0.082	1.4193 ± 0.0003
307.33 K, Liquid mixture 2, Wavelength=623.8 nm, x1 = 0.198	1.4211 ± 0.0003
307.36 K, Liquid mixture 1, Wavelength=623.8 nm, x1 = 0.089	1.4194 ± 0.0003
307.36 K, Liquid mixture 2, Wavelength=623.8 nm, x1 = 0.199	1.4211 ± 0.0003
307.39 K, Liquid mixture 1, Wavelength=623.8 nm, x1 = 0.089	1.4194 ± 0.0003
307.39 K, Liquid mixture 2, Wavelength=623.8 nm, x1 = 0.193	1.421 ± 0.0003
307.41 K, Liquid mixture 1, Wavelength=623.8 nm, x1 = 0.09	1.4194 ± 0.0003
307.41 K, Liquid mixture 2, Wavelength=623.8 nm, x1 = 0.186	1.4209 ± 0.0003
307.44 K, Liquid mixture 1, Wavelength=623.8 nm, x1 = 0.096	1.4195 ± 0.0003
307.44 K, Liquid mixture 2, Wavelength=623.8 nm, x1 = 0.187	1.4209 ± 0.0003
307.45 K, Liquid mixture 1, Wavelength=623.8 nm, x1 = 0.097	1.4195 ± 0.0003
307.45 K, Liquid mixture 2, Wavelength=623.8 nm, x1 = 0.18	1.4208 ± 0.0003
307.47 K, Liquid mixture 1, Wavelength=623.8 nm, x1 = 0.097	1.4195 ± 0.0003
307.47 K, Liquid mixture 2, Wavelength=623.8 nm, x1 = 0.181	1.4208 ± 0.0003
307.48 K, Liquid mixture 1, Wavelength=623.8 nm, x1 = 0.097	1.4195 ± 0.0003
307.48 K, Liquid mixture 2, Wavelength=623.8 nm, x1 = 0.174	1.4207 ± 0.0003
307.49 K, Liquid mixture 1, Wavelength=623.8 nm, x1 = 0.104	1.4196 ± 0.0003
307.49 K, Liquid mixture 2, Wavelength=623.8 nm, x1 = 0.175	1.4207 ± 0.0003
307.5 K, Liquid mixture 1, Wavelength=623.8 nm, x1 = 0.104	1.4196 ± 0.0003
307.5 K, Liquid mixture 2, Wavelength=623.8 nm, x1 = 0.168	1.4206 ± 0.0003
307.51 K, Liquid mixture 1, Wavelength=623.8 nm, x1 = 0.104	1.4196 ± 0.0003
307.51 K, Liquid mixture 2, Wavelength=623.8 nm, x1 = 0.168	1.4206 ± 0.0003
307.52 K, Liquid mixture 1, Wavelength=623.8 nm, x1 = 0.104	1.4196 ± 0.0003
307.52 K, Liquid mixture 1, Wavelength=623.8 nm, x1 = 0.111	1.4197 ± 0.0003
307.52 K, Liquid mixture 2, Wavelength=623.8 nm, x1 = 0.155	1.4204 ± 0.0003
307.52 K, Liquid mixture 2, Wavelength=623.8 nm, x1 = 0.162	1.4205 ± 0.0003 and 1.4205 ± 0.0005
307.53 K, Liquid mixture 1, Wavelength=623.8 nm, x1 = 0.111	1.4197 ± 0.0003
307.53 K, Liquid mixture 1, Wavelength=623.8 nm, x1 = 0.117	1.4198 ± 0.0003 and 1.4198 ± 0.0004
307.53 K, Liquid mixture 2, Wavelength=623.8 nm, x1 = 0.149	1.4203 ± 0.0003
307.53 K, Liquid mixture 2, Wavelength=623.8 nm, x1 = 0.155	1.4204 ± 0.0003

85 kPa, Liquid, Wavelength=632.8 nm, Minimum Deviation
Conditions	refractive index
301.61 K, x1 = 0.7	1.4285 ± 0.0003
302.37 K, x1 = 0.8	1.429 ± 0.0003
302.37 K, x1 = 0.898	1.4299 ± 0.0003
303.54 K, x1 = 0.7	1.4279 ± 0.0003
303.94 K, x1 = 0.898	1.4295 ± 0.0003
303.98 K, x1 = 0.8	1.4286 ± 0.0003
305.36 K, x1 = 0.7	1.4274 ± 0.0003
305.43 K, x1 = 0.898	1.4291 ± 0.0003
305.58 K, x1 = 0.5	1.4254 ± 0.0003
305.64 K, x1 = 0.8	1.4282 ± 0.0003
306.75 K, x1 = 0.6	1.4262 ± 0.0003
307.04 K, x1 = 0.7	1.4269 ± 0.0003
307.1 K, x1 = 0.8	1.4278 ± 0.0003
307.12 K, x1 = 0.898	1.4286 ± 0.0003
307.21 K, x1 = 0.5	1.4249 ± 0.0003
307.74 K, x1 = 0.2	1.421 ± 0.0003
307.74 K, x1 = 0.3	1.4225 ± 0.0003
308 K, x1 = 0.399	1.4235 ± 0.0003
308.01 K, x1 = 0.1	1.4195 ± 0.0003
308.5 K, x1 = 0.7	1.4265 ± 0.0003
308.52 K, x1 = 0.6	1.4256 ± 0.0003
308.6 K, x1 = 0.5	1.4245 ± 0.0003
308.63 K, x1 = 0.8	1.4274 ± 0.0003
309.13 K, x1 = 0.3	1.422 ± 0.001
309.27 K, x1 = 0.898	1.428 ± 0.0003
309.33 K, x1 = 0.2	1.4204 ± 0.0003
309.52 K, x1 = 0.1	1.4189 ± 0.0003
309.56 K, x1 = 0.399	1.423 ± 0.001
310.16 K, x1 = 0.5	1.424 ± 0.0003
310.34 K, x1 = 0.7	1.426 ± 0.0003
310.34 K, x1 = 0.8	1.4269 ± 0.0003
310.75 K, x1 = 0.3	1.4214 ± 0.0003
310.81 K, x1 = 0.6	1.4249 ± 0.0003
310.88 K, x1 = 0.2	1.4199 ± 0.0003
311.04 K, x1 = 0.1	1.4183 ± 0.0003
311.13 K, x1 = 0.399	1.4225 ± 0.0003
311.28 K, x1 = 0.898	1.4274 ± 0.0003
311.69 K, x1 = 0.5	1.4235 ± 0.0003
312.29 K, x1 = 0.3	1.4209 ± 0.0003
312.54 K, x1 = 0.2	1.4193 ± 0.0003
312.58 K, x1 = 0.1	1.4178 ± 0.0003
312.73 K, x1 = 0.6	1.4243 ± 0.0003
313.03 K, x1 = 0.399	1.4219 ± 0.0003
313.17 K, x1 = 0.5	1.4231 ± 0.0003
313.86 K, x1 = 0.3	1.4204 ± 0.0003
314.02 K, x1 = 0.2	1.4188 ± 0.0003
314.06 K, x1 = 0.1	1.4172 ± 0.0003
314.31 K, x1 = 0.399	1.4214 ± 0.0003
314.64 K, x1 = 0.6	1.4237 ± 0.0003
315.45 K, x1 = 0.3	1.4198 ± 0.0003
315.63 K, x1 = 0.1	1.4166 ± 0.0003
315.63 K, x1 = 0.2	1.4183 ± 0.0003
316.32 K, x1 = 0.399	1.4208 ± 0.0003
316.32 K, x1 = 0.6	1.4232 ± 0.0003

Reference: the NIST ThermoML archive (doi:10.1016/j.fluid.2015.03.015)
